Source: publication PMC11044139, “Comparative Study of Toxic Terpenoidal Aldehydes and Lactone Derivatives from the European Polypore Bondarzewia mesenterica” (ACS Omega, 2024)
≈ marks a conversion by molar mass, not a printed value. Like-named read-outs stand apart in the source and are kept apart here.

Tests used:
Assay type in all cases: cell-based
[1] = tested on: Chromobacterium violaceum (DSM 30191); assay: Antimicrobial assay (MIC), C. violaceum; conditions: overnight incubation, n.i. = no inhibition up to 67 μg/mL
Experimental: (§1) The antimicrobial effects of the isolated compounds were determined using our established protocols.[19] Generally, an array of clinically relevant microorganisms consisting of bacteria, namely, S. aureus (DSM 346), A. baumanii (DSM 30008), B. subtilis (DSM 10), E. coli (DSM 1116), P. aeruginosa (PA14), C. violaceum (DSM 30191), and M. smegmatis (ATCC 700084), and fungi including M. hiemalis (DSM 2656), C. albicans (DSM 1665), R. glutinis (DSM 10134), S. pombe (DSM 70572), and P. anomala (DSM 6766), were used. […] The minimum inhibitory concentrations (MIC) were recorded after an overnight incubation as the lowest concentration under which no microbial growth was visualized. The microorganisms were obtained from the German Collection of Microorganisms and Cell Cultures (DSMZ, Braunschweig, Germany).

[2] = tested on: Escherichia coli (DSM 1116); assay: Antimicrobial assay (MIC), E. coli; conditions: overnight incubation, n.i. = no inhibition up to 67 μg/mL
Experimental: as §1

[3] = tested on: Pichia anomala (DSM 6766); assay: Antimicrobial assay (MIC), P. anomala; conditions: Pichia anomala; overnight incubation; n.i. = no inhibition up to 67 μg/mL
Experimental: as §1

[4] = tested on: Acinetobacter baumanii (DSM 30008); assay: Antimicrobial assay (MIC), A. baumanii; conditions: overnight incubation, n.i. = no inhibition up to 67 μg/mL
Experimental: as §1

[5] = tested on: Staphylococcus aureus (DSM 346); assay: Antimicrobial assay (MIC), S. aureus; conditions: overnight incubation, n.i. = no inhibition up to 67 μg/mL
Experimental: as §1

[6] = tested on: Mycobacterium smegmatis (ATCC 700084); assay: Antimicrobial assay (MIC), M. smegmatis; conditions: Mycobacterium smegmatis; overnight incubation; n.i. = no inhibition up to 67 μg/mL
Experimental: as §1

[7] = tested on: Schizosaccharomyces pombe (DSM 70572); assay: Antimicrobial assay (MIC), S. pombe; conditions: overnight incubation, n.i. = no inhibition up to 67 μg/mL
Experimental: as §1

[8] = tested on: Pseudomonas aeruginosa (PA14); assay: Antimicrobial assay (MIC), P. aeruginosa; conditions: overnight incubation, n.i. = no inhibition up to 67 μg/mL
Experimental: as §1

[9] = tested on: Mucor hiemalis (DSM 2656); assay: Antimicrobial assay (MIC), M. hiemalis; conditions: n.i. = no inhibition up to 67 μg/mL
Experimental: as §1

[10] = tested on: Candida albicans (DSM 1665); assay: Antimicrobial assay (MIC), C. albicans; conditions: overnight incubation, n.i. = no inhibition up to 67 μg/mL
Experimental: as §1

[11] = tested on: Rhodotorula glutinis (DSM 10134); assay: Antimicrobial assay (MIC), R. glutinis; conditions: overnight incubation, n.i. = no inhibition up to 67 μg/mL
Experimental: as §1

[12] = tested on: Bacillus subtilis (DSM 10); assay: Antimicrobial assay (MIC), B. subtilis; conditions: n.i. = no inhibition up to 67 μg/mL
Experimental: as §1

| Compound | MIC [1] | MIC [2] | MIC [3] | MIC [4] | MIC [5] | MIC [6] | MIC [7] | MIC [8] | MIC ([9]; overnight incubation) | MIC [10] | MIC [11] | MIC ([12]; overnight incubation) | MIC ([9]; DSM2656, overnight incubation, read-out: MIC) [µg/mL] | MIC ([12]; DSM10, overnight incubation, read-out: MIC) [µg/mL] |
| --- | --- | --- | --- | --- | --- | --- | --- | --- | --- | --- | --- | --- | --- | --- |
| CC(C)=CCC(CC1=CC(=O)OC1)C(=O)O (centres unmarked) [Compound 2, vibralactones J] | n.i. | n.i. | n.i. | n.i. | n.i. | n.i. | n.i. | n.i. | n.i. | n.i. | n.i. | n.i. | – | – |
| CC(C)(O)[C@H]1C[C@@H](CC2=CC(=O)OC2)C(=O)O1 [Compound 4, vibralactones Z1] | n.i. | n.i. | n.i. | n.i. | n.i. | n.i. | n.i. | n.i. | n.i. | n.i. | n.i. | n.i. | – | – |
| CC(C)=CC[C@H]1C=C(CO)C=COC1=O [Compound 6, 1,5-secovibralactone] | n.i. | n.i. | n.i. | n.i. | n.i. | n.i. | n.i. | n.i. | – | n.i. | n.i. | n.i. | 66.6 (≈ 320 µM) | – |
| COc1ccc([C@H](O)[C@H](C)O)cc1 [Compound 11, (4-methoxyphenyl)-1,2-propanediol] | n.i. | n.i. | n.i. | n.i. | n.i. | n.i. | n.i. | n.i. | n.i. | n.i. | n.i. | n.i. | – | – |
| COc1ccc(C(=O)C(C)O)cc1 (centres unmarked) [Compound 12, 2-hydroxy-(4′-methoxy)-propiophenone] | n.i. | n.i. | n.i. | n.i. | n.i. | n.i. | n.i. | n.i. | n.i. | n.i. | n.i. | n.i. | – | – |
| NC[C@H]1O[C@H](O[C@H]2[C@H](O)[C@@H](O[C@H]3O[C@H](CO)[C@@H](O)[C@H](N)[C@H]3O)[C@H](N)C[C@@H]2N)[C@H](O)[C@@H](O)[C@@H]1O [kanamycin, reference compound] | – | – | – | – | – | 1.70^K μg/mL | – | – | – | – | – | – | – | – |
| C[C@@H]1[C@H](O)[C@@H](C)/C=C/C=C/CC/C=C/C=C/C=C/C=C/C(O[C@H]2O[C@H](C)[C@@H](O)[C@H](N)[C@@H]2O)CC2O[C@](O)(CC(O)C(O)CCC(O)CC(O)CC(O)CC(=O)O[C@H]1C)CC(O)C2C(=O)O (some centres unmarked) [nystatin, reference compound] | – | – | 8.30^N μg/mL | – | – | – | 8.30^N μg/mL | – | 8.30^N μg/mL | 8.30^N μg/mL | 4.20^N μg/mL | – | – | – |
| CN(C)[C@@H]1C(O)=C(C(N)=O)C(=O)[C@@]2(O)C(O)=C3C(=O)c4c(O)cccc4[C@@](C)(O)[C@H]3[C@H](O)[C@@H]12 [oxytetracycline, reference compound] | – | – | – | – | – | – | – | – | – | – | – | – | – | 16.6 (≈ 36.1 µM) |
| Gentamycin [reference compound] | 1.67^G μg/mL | 0.83^G μg/mL | – | – | 0.42^G μg/mL | – | – | 0.42^G μg/mL | – | – | – | – | – | – |
